Reference: patent US5066676A, “Sulfonamido derivative inhibiting the aldose reductase enzyme system and pharmaceutical compositions containing them” (Laboratori Baldacci SpA, priority 1987, dated 1991)

How the values were obtained:
[1] = test system: diabetic cataract in the rat; test: Action on the appearance of the diabetic cataract (rat); type: in vivo; conditions: for appearance of the diabetic cataract: Table 5, 25 mg/kg/die per os
Experimental: (§1) With the compound bearing the abbreviation ARI 6 the following tests have been carried out in the rat and in the rabbit.
Action on the appearance of the diabetic cataract (rat).
Effects of the administration of ARI 6 (25 mg/kg/die, per os)
on the appearance of the diabetic cataract in the rat.
The values are expressed as percentages. Within brackets there are indicated the animals for each group.
Effects of the administration of ARI-1 (25 mg/kg/die, per os)

[2] = Acute toxicity of ARI 6 in the rat; conditions: in vivo
[3] = Acute toxicity of ARI 6 in the mouse; conditions: in vivo
[4] = test system: rat; test: Toxicity per oral administration repeated in the rat (30 days); type: in vivo; conditions: 30 days, 100, 200, 300 mg/kg/die
Excerpt: Toxicity per oral administration repeated in the rat (30 days)--Test protocol:
Compound Doses mg/kg/die

[5] = test system: galactosemic cataract in the rat; test: Action on the appearance of the galactosemic cataract (rat); type: in vivo; set-up: appearance of the galactosemic cataract: unit not given here
Experimental: as §1
Action on the appearance of the galactosemic cataract (rat)
Effects of the administration of ARI-6 (5 and 25 mg/kg/die, os)
on the appearance of the galactosemic cataract in the rat.
[…] In the brackets the number of animals for each group is indicated.
The diet contains D-galactose 50%.
Effects of the administration of ARI-1 (5 and 25 mg/kg/die, os)

[6] = target: T1, aldose reductase (Bos taurus, UniProt P16116); test: In vitro inhibition of aldose reductase activity of raw extracts from bovine crystalline lens; type: biochemical; conditions: glyceraldehyde substrate, NADPH, pH 6.8, 37° C.; read-out: IC50 on the aldose reductase activity of raw extracts originating from bovine crystalline lens
T1 construct: 4 bovine crystalline lenses (8 g) are homogenized by means of Potter in ice bath; from tissue; host or cells: bovine crystalline lens
Experimental: "In vitro" tests have been carried out to evalute the inhibition of the aldose reductase activity, prepared from the extract of bovine crystalline lenses.
PREPARATION OF THE RAW EXTRACTS
4 bovine crystalline lenses (8 g) are homogenized by means of Potter in ice bath with 40 ml of 50 mM phosphate buffer, pH 6.8, containing 2-mercaptoethanol pH ([…]). After centrifugation (12.000×g -20 min-4° C.) the supernatant is brought to 40% saturation with an ammonium sulphate and centrifugated again (14.000×g). The supernatant is then brought to the 80% saturation ((NH4)2 SO4) and, after centrifugation for 20 minutes and at 14.000×g, the sedimented matter is recovered and suspended in 7 ml of phosphate buffer. The enzymatic preparation is dialyzed by ultrafiltration with AMICON ultrafiltration cell.
DOSAGE OF THE ENZYMATIC ACTIVITY
The reference cuvette contains all the several substances apart from the substrate.

CN(CC(=O)O)S(=O)(=O)c1ccc2oc3ccc(Cl)cc3c(=O)c2c1 [ARI 6, 7-chloro-2 (N-methyl-N-carboxymethyl) sulfamoylxanthone]
appearance of the diabetic cataract ([1]; day 5 from streptozotocine): 0.0%
appearance of the diabetic cataract ([1]; day 10 from streptozotocine): 0.0%
appearance of the diabetic cataract ([1]; day 15 from streptozotocine): 0.0%
appearance of the diabetic cataract ([1]; day 20 from streptozotocine): 0.0%
appearance of the diabetic cataract ([1]; day 25 from streptozotocine): 0.0%
appearance of the diabetic cataract ([1]; day 30 from streptozotocine): 0.0%
appearance of the diabetic cataract ([1]; day 35 from streptozotocine): 0.0%
appearance of the diabetic cataract ([1]; day 40 from streptozotocine): 20.0%
appearance of the diabetic cataract ([1]; day 45 from streptozotocine): 30.0%
appearance of the diabetic cataract ([1]; day 50 from streptozotocine): 100.0%
delay of the appearance of the diabetic cataract ([1]; rat, 25 mg/kg, vs controls): about 30 days
LD50 ([2]; ip, read-out: Acute toxicity in the rat ip): 1000 mg/kg
LD50 ([2]; po, per os, read-out: Acute toxicity in the rat per os): 1000 mg/kg
LD50 ([3]; ip, read-out: Acute toxicity in the mouse ip): 1000 mg/kg
LD50 ([3]; po, per os, read-out: Acute toxicity in the mouse per os): 1000 mg/kg
Microscope and hystomorphological examination [4]: no alteration
death [4]: No death
Behaviour and general status ([4]; vs control group): no variation with respect to the control group
Biochemical and hematological parameters ([4]; vs controls): no significant variation with respect to the controls
appearance of the galactosemic cataract ([5]; Table 4, 5 mg/kg/die os, day 5 of diet): 0.0
appearance of the galactosemic cataract ([5]; Table 4, 5 mg/kg/die os, day 10 of diet): 0.0
appearance of the galactosemic cataract ([5]; Table 4, 5 mg/kg/die os, day 15 of diet): 0.0
appearance of the galactosemic cataract ([5]; Table 4, 5 mg/kg/die os, day 20 of diet): 0.0
appearance of the galactosemic cataract ([5]; Table 4, 5 mg/kg/die os, day 25 of diet): 15.0
appearance of the galactosemic cataract ([5]; Table 4, 5 mg/kg/die os, day 30 of diet): 20.0
appearance of the galactosemic cataract ([5]; Table 4, 5 mg/kg/die os, day 35 of diet): 40.0
appearance of the galactosemic cataract ([5]; Table 4, 5 mg/kg/die os, day 40 of diet): 100.0
appearance of the galactosemic cataract ([5]; Table 4, 5 mg/kg/die os, day 45 of diet): 100.0
appearance of the galactosemic cataract ([5]; Table 4, 5 mg/kg/die os, day 50 of diet): 100.0
appearance of the galactosemic cataract ([5]; Table 4, 25 mg/kg/die os, day 5 of diet): 0.0
appearance of the galactosemic cataract ([5]; Table 4, 25 mg/kg/die os, day 10 of diet): 0.0
appearance of the galactosemic cataract ([5]; Table 4, 25 mg/kg/die os, day 15 of diet): 0.0
appearance of the galactosemic cataract ([5]; Table 4, 25 mg/kg/die os, day 20 of diet): 0.0
appearance of the galactosemic cataract ([5]; Table 4, 25 mg/kg/die os, day 25 of diet): 0.0
appearance of the galactosemic cataract ([5]; Table 4, 25 mg/kg/die os, day 30 of diet): 0.0
appearance of the galactosemic cataract ([5]; Table 4, 25 mg/kg/die os, day 35 of diet): 0.0
appearance of the galactosemic cataract ([5]; Table 4, 25 mg/kg/die os, day 40 of diet): 15.0
appearance of the galactosemic cataract ([5]; Table 4, 25 mg/kg/die os, day 45 of diet): 25.0
appearance of the galactosemic cataract ([5]; Table 4, 25 mg/kg/die os, day 50 of diet): 100.0
delay for the appearance of the galactosemic cataract ([5]; rat, 5 mg/kg, vs controls): about 20 days
effect on appearance of the galactosemic cataract (in words) ([5]; rat, higher doses): A more intense effect
IC50 [6]: 9.2 µM
